# Assay results taken from BindingDB's records for doi:10.7270/Q20R9MZM (Merrell Dow Research Institute, 1990).
# Molecular target: T1, Prunasin hydrolase (Prunus dulcis, UniProt H9ZGD9)
# T1 sequence (H9ZGD9 whole entry): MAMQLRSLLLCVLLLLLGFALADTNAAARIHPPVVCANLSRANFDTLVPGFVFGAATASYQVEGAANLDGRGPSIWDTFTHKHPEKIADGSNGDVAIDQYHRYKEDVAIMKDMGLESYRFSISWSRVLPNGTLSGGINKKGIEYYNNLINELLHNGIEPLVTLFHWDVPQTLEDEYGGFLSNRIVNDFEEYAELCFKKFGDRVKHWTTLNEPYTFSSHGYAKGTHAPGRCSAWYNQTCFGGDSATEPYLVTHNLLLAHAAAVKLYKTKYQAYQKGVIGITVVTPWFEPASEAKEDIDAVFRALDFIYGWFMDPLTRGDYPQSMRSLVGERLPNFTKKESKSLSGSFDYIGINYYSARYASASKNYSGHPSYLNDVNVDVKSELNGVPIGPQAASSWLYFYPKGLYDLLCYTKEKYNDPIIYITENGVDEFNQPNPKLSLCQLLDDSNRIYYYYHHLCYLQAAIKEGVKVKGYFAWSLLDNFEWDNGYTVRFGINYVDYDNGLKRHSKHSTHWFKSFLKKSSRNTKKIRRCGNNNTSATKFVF
# Assay: Enzyme Assay
# Conditions: pH 5.6; 37 °C
# Experimental: The enzyme activity was measured by monitoring the increase in absorbance at 400 nm due to hydrolysis of para-nitrophenyl-beta-glucopyranoside. All assays were carried out in the presence of 0.05M sodium acetate buffer (pH 5.6) and 0.1 mM EDTA at 37 C.
row,Ki,Compound
1,900 µM,"COc1ccc(O[C@@H]2O[C@H](CO)[C@@H](O)[C@H](O)[C@H]2O)c(C(F)F)c1 [Glucosidase inhibitor, 6f]"
2,800 µM,"COc1cc(CF)ccc1O[C@@H]1O[C@H](CO)[C@@H](O)[C@H](O)[C@H]1O [Glucosidase inhibitor, 11]"

# Continued, compound first:
row,Compound,Ki
1,"COc1cc(C(F)F)ccc1O[C@@H]1O[C@H](CO)[C@@H](O)[C@H](O)[C@H]1O [Glucosidase inhibitor, 6b]",60 µM
2,"OC[C@H]1O[C@@H](Oc2ccccc2C(F)F)[C@H](O)[C@@H](O)[C@@H]1O [Glucosidase inhibitor, 6e]",3700 µM
3,"COc1cc(C(F)F)cc(OC)c1O[C@@H]1O[C@H](CO)[C@@H](O)[C@H](O)[C@H]1O [Glucosidase inhibitor, 6d]",1900 µM
4,"OC[C@H]1O[C@@H](Oc2ccc(C(F)F)cc2)[C@H](O)[C@@H](O)[C@@H]1O [Glucosidase inhibitor, 6a]",1700 µM
5,"CCOc1cc(C(F)F)ccc1O[C@@H]1O[C@H](CO)[C@@H](O)[C@H](O)[C@H]1O [Glucosidase inhibitor, 6c]",100 µM
